From article PMC12583827, “Harnessing microbial-derived metabolites in the urinary tract to prevent infection induced catheter encrustation” (Nature Communications, 2025)

Tests used:
lymphoblasts (K562) = settings: cited from earlier work
[1] = tested on: epithelial-like hepatocellular carcinoma cells (HepG2); settings: cited from earlier work
[2] = tested on: human gastric cancer cells (SGC-7901); settings: cited from earlier work
[3] = cited from earlier work
P. mirabilis = experiment: In vitro glass “bladder” model of catheter encrustation; type: cell-based, Proteus mirabilis
Protocol: A Foley catheter is inserted aseptically into the vessel through an opening at the base, the balloon is inflated, and the catheter is attached to a catheter drainage bag (Fig. 7A). The “bladder” is supplied with sterile AUM at a physiologically relevant flow rate via peristaltic pump from a media reservoir, the “kidney” (Fig. 7A). An initial bacterial inoculum of 10^8 CFU of P. mirabilis was added to the AUM in the “bladder” inner chamber to model robust bacteriuria, followed by initiation of flow (Fig. 7B). The performance of urease-dampening metabolites was evaluated as a reduction in 1) effluent AUM pH over the 24 h study period, and 2) crystalline biofilm formation and ion precipitation on catheter segments 24 h post inoculation. Urease-dampening metabolites and AHA were introduced into the system by direct dissolution into the AUM reservoirs. For each study, both positive (untreated P. mirabilis) and negative (untreated P. mirabilis urease negative mutant) controls were included. Effluent urine samples were collected at 0, 3, 6, 9, 12 and 24 h post inoculation. This preclinical model of catheter encrustation was modified to assess whether prophylactic administration of urease-dampening metabolites increases efficacy of antimicrobials against catheter biofilms, as outlined in Fig. 9A. Each experiment was performed in triplicate. Full details of experimental set up, sample collection, and processing are provided below and in Supplementary Materials.
A previously described glass “bladder” model was used, in which a 500 mL water-jacketed glass vessel is maintained at 37 °C via a circulating water bath, a Foley catheter is inserted and inflated, and artificial urine medium (AUM) is supplied into the “bladder” at a constant flow rate (0.75-1.0 mL/min) through a peristaltic pump[55],[56]. For consistency with the in vitro urease activity assays and the physiologic range of urea in healthy human urine, AUM was supplemented with 500 mM urea[57]. Urease-dampening metabolites of interest were directly dissolved in AUM 500 mM urea, adjusted to a pH of 5.8, and filter sterilized via a 0.2μm filter. “Bladders” were inoculated with 10^8 CFUs of P. mirabilis. Samples were collected from the catheter port at 0, 3, 6, 9, 12, and 24 hours to monitor pH and bacterial CFUs. Catheters segments were processed for CFUs, crystal violet staining of biofilm biomass, and ion composition at 24 h. Full details are provided in the Supplementary Methods.
236 and the segments were air dried for 15 min. Catheter segments were stained with 1.0 ml 0.1%
237 crystal violet for 10 min, washed by gentle dunking in 1X phosphate-buffered saline (PBS) to
238 remove excess stain, and solubilized in a microcentrifuge tube containing 750μL of 1% SDS
239 95% ethanol and vortexed for 5 minutes. Crystal violet absorbance (OD570) was measured in a
240 BioTek Synergy H1 microplate reader and blanked using cell-free control wells for each biofilm
243 Catheter segment biofilm viability. Catheter segments were washed by gentle dunking in 1X
244 phosphate-buffered saline (PBS) to remove any remaining planktonic bacteria and residual AUM
245 from the catheter lumen. Catheter segments were then placed in a microcentrifuge tube
246 containing 1mL of 1X PBS and vortexed for 5 minutes to solubilize the biofilm. Samples
247 underwent serial 10-fold dilutions and were spiral plated (Eddy Jet 2; Neutec Group Inc.,
248 Farmingdale, NY) onto low-salt LB agar for enumeration of CFU using a ProtoCOL 3 automated
249 colony counter (Synbiosis).
251 Catheter segment elemental composition. Catheter segments were placed in a microcentrifuge

[4] = 24 h, alone: 5 mM AHA, 25 mM histamine, 25 mM 4-imidazole acetate

CC(=O)NO [AHA, acetohydroxamic acid, reference compound]
decrease in viability of K562 (lymphoblasts (K562)): 60-70% | decrease in viability of HepG2 [1]: 60-70% | decrease in viability of SGC-7901 [2]: 60-70% | efficacy in clinical trials [3]: showed efficacy in preventing urinary stone formation | severe side effects ([3]; in vivo): teratogenesis, hemolytic anemia, psychoneurological and muscular symptoms | crystalline biofilm formation (P. mirabilis; 24 h, alone: 1.25 mM AHA, 12.5 mM histamine, 12.5 mM 4-imidazole acetate): no impact on crystalline biofilm formation | Magnesium and phosphorus precipitation on catheter segments (ICP-OES) (P. mirabilis; [4]): reduced, although the reduction was not statistically significant | catheter biofilm biomass (crystal violet) vs untreated P. mirabilis (P. mirabilis; [4]): significantly reduced biofilm biomass | pH of AUM collected from “bladders” over 24 h (P. mirabilis; alone, lower concentrations): failed to restrict pH | pH of AUM collected from “bladders” over 24 h (P. mirabilis; alone: 5 mM AHA, 25 mM histamine, 25 mM 4-imidazole acetate, nucleation point ~ pH 8): never surpassed the nucleation point | P. mirabilis CFUs in effluent over time (P. mirabilis; tested individually): no meaningful differences between CFUs over time | urease-mediated pH increase (P. mirabilis; tested individually, dose response): perturbed urease-mediated pH increase in a dose-dependent manner
